In US7345009B2, “Substituted 4-hetaryl-pyrazolines as pest control agents” (Bayer CropScience AG, priority 2002, dated 2008):
Blank lines part the entries; values can stand above or below the compound they belong to.

How the values were obtained:
[1] = logP determination by reversed-phase HPLC (EEC directive 79/831 Annex V.A8), pH 2.3; format: physicochemical; conditions: reversed-phase HPLC column (C18), HPLC C18, 43° C., Preparation Examples
Description: The logP values given in the tables and Preparation Examples above are determined in accordance with EEC directive 79/831 Annex V.A8 by HPLC (High Performance Liquid Chromatography) using a reversed-phase column (C 18). Temperature: 43° C.
The determination is carried out in the acidic range at pH 2.3 using the mobile phases 0.1% aqueous phosphoric acid and acetonitrile; linear gradient from 10% acetonitrile to 90% acetonitrile.
Calibration is carried out using unbranched alkan-2-ones (of 3 to 16 carbon atoms) with known logP values (determination of the logP values by retention times using linear interpolation between two successive alkanones).

[2] = tested on: caterpillars of the army worm (Spodoptera exigua); experiment: Spodoptera exigua test (Example E); format: in vivo; conditions: 500 ppm active compound; after 7 days; cabbage leaves dipped
Description: (§1) Solvent: 7 parts by weight of dimethylformamide
(§2) Emulsifier: 2 parts by weight of alkylaryl polyglycol ether
(§3) To produce a suitable preparation of active compound, 1 part by weight of active compound is mixed with the stated amounts of solvent and emulsifier, and the concentrate is diluted with emulsifier-containing water to the desired concentration.
Cabbage leaves (Brassica oleracea) are treated by being dipped into the preparation of active compound of the desired concentration and are populated with caterpillars of the army worm (Spodoptera exigua) while the leaves are still moist.
(§4) After the desired period of time, the kill in % is determined. 100% means that all caterpillars have been killed; 0% means that none of the caterpillars have been killed.

[3] = tested on: larvae of the mustard beetle (Phaedon cochleariae); experiment: Phaedon larvae test (Example C); format: in vivo; conditions: 500 ppm active compound; after 7 days; cabbage leaves dipped
Description: Phaedon larvae Test Solvent: 7 parts by weight of dimethylformamide Emulsifier: 2 parts by weight of alkylaryl polyglycol ether To produce a suitable preparation of active compound, 1 part by weight of active compound is mixed with the stated amounts of solvent and emulsifier, and the concentrate is diluted with emulsifier-containing water to the desired concentration. Cabbage leaves (Brassica oleracea) are treated by being dipped into the preparation of active compound of the desired concentration and are populated with larvae of the mustard beetle (Phaedon cochleariae) while the leaves are still moist.

[4] = tested on: caterpillars of the army worm (Spodoptera frugiperda); experiment: Spodoptera frugiperda test (Example F); format: in vivo; conditions: 500 ppm active compound; after 7 days; cabbage leaves dipped
Description: Spodoptera frugiperda Test
as §1, §2, §3
Cabbage leaves (Brassica oleracea) are treated by being dipped into the preparation of active compound of the desired concentration and are populated with caterpillars of the army worm (Spodoptera frugiperda) while the leaves are still moist.
as §4

[5] = tested on: caterpillars of the diamondback moth (Plutella xylostella); experiment: Plutella test, cabbage leaf dip (Example D); format: in vivo; conditions: 500 ppm active compound; after 7 days; cabbage leaves dipped
Description: as §1, §2, §3
Cabbage leaves (Brassica oleracea) are treated by being dipped into the preparation of active compound of the desired concentration and are populated with caterpillars of the diamondback moth (Plutella xylostella) while the leaves are still moist.
as §4

[6] = tested on: caterpillars of the cotton bud worm (Heliothis armigera); experiment: Heliothis armigera test (Example A); format: in vivo; conditions: 500 ppm active compound; after 7 days; soya bean shoots dipped
Description: as §1, §2, §3
Soya bean shoots (Glycine max) are treated by being dipped into the preparation of active compound of the desired concentration and are populated with caterpillars of the cotton bud worm (Heliothis armigera) while the leaves are still moist.
as §4

[7] = tested on: Heliothis virescens caterpillars; experiment: Heliothis virescens test (Example B); format: in vivo; conditions: 500 ppm active compound; after 7 days; soya bean shoots dipped
Description: as §1, §2, §3
Soya bean shoots (Glycine max) are treated by being dipped into the preparation of active compound of the desired concentration and are populated with Heliothis virescens caterpillars while the leaves are still moist.
as §4

chromatographic logP [1]: 2.03
Structure (SMILES): Cn1nnc(CC(=O)c2ccc(Cl)cc2)n1 [2-(2-methyltetrazol-5-yl)-4′-chloroacetophenone]

chromatographic logP [1]: 3.77
Structure (SMILES): Cc1nnc(C2CN(C(=O)Nc3ccc(OC(F)(F)F)cc3)N=C2c2ccc(Cl)cc2)s1 (centres unmarked) [Example 4, N-(4-trifluoromethoxy)-3-(4-chlorophenyl)-4-(5-methyl-1,3,4-thiadiazol-2-yl)-4,5-dihydro-1-pyrazolecarboxanilide]
kill [2]: 100%
kill [3]: 100%
kill [4]: 100%
kill [5]: 100%
kill [6]: 100%

chromatographic logP [1]: 4
Structure (SMILES): Cc1nnn(C2CN(C(=O)Nc3ccc(OC(F)(F)F)cc3)N=C2c2ccc(Cl)cc2)n1 (centres unmarked) [Example 1, N-(4-trifluoromethoxy)-3-(4-chlorophenyl)-4-(5-methyltetrazol-2-yl)-4,5-dihydro-1-pyrazolecarboxanilide]
kill [2]: 100%
kill [3]: 100%
kill [4]: 100%
kill [5]: 100%
kill [7]: 100%

chromatographic logP [1]: 1.77
Structure (SMILES): Cc1nnc(C2CNN=C2c2ccc(Cl)cc2)s1 (centres unmarked) [3-(4-chlorophenyl)-4-(2-methyl-1,3,4-thiadiazol-5-yl)-4,5-dihydro-1H-pyrazole]

chromatographic logP [1]: 1.78
Structure (SMILES): Cn1nnnc1CC(=O)c1ccc(Cl)cc1 [2-(1-methyltetrazol-5-yl)-4′-chloroacetophenone]

chromatographic logP [1]: 2.11
Structure (SMILES): Cc1nnn(C2CNN=C2c2ccc(Cl)cc2)n1 (centres unmarked) [3-(4-chlorophenyl)-4-(5-methyltetrazol-2-yl)-4,5-dihydro-1H-pyrazole]

chromatographic logP [1]: 1.81
Structure (SMILES): Cc1nnnn1CC(=O)c1ccc(Cl)cc1 [2-(5-methyltetrazol-1-yl)-4′-chloroacetophenone]

chromatographic logP [1]: 3.68
Structure (SMILES): Cc1nnn(C2CN(C(=O)N(CC#N)c3ccc(OC(F)(F)F)cc3)N=C2c2ccc(Cl)cc2)n1 (centres unmarked) [Example 2, N-cyanomethyl-N-trifluoromethoxy-3-(4-chlorophenyl)-4-(5-methyltetrazol-2-yl)-4,5-dihydro-1-pyrazolecarboxanilide]
kill [2]: 100%
kill [3]: 100%
kill [4]: 100%
kill [5]: 100%
kill [6]: 100%

chromatographic logP [1]: 1.44
Structure (SMILES): O=C(Cc1nn[nH]n1)c1ccc(Cl)cc1 [2-tetrazol-5-yl-4′-chloroacetophenone]

chromatographic logP [1]: 1.67
Structure (SMILES): Cn1nnc(C2CNN=C2c2ccc(Cl)cc2)n1 (centres unmarked) [3-(4-chlorophenyl)-4-(2-methyltetrazol-5-yl)-4,5-dihydro-1H-pyrazole]

chromatographic logP [1]: 2.14
Structure (SMILES): Cc1nnn(CC(=O)c2ccc(Cl)cc2)n1 [2-(5-methyltetrazol-2-yl)-4′-chloroacetophenone]
